From US20250051409A1, “MODULATORS OF PHOSPHATIDYLSERlNE DECARBOXYLASE AND USE THEREOF” (THE NATIONAL INSTITUTE FOR BIOTECHNOLOGY IN THE NEGEV LTD., priority 2021, published 2025)
Square brackets hold non-standard residues; d marks the D form. Peptide text beside a SMILES is read from it. Dmt = Cc1cc(O)cc(C)c1C[C@H](N)C(=O)O; Orn = NCCC[C@H](N)C(=O)O

Tested on: A549 lung cancer cell
Format: cell-based, human
Conditions: 24 h
Procedure: (B) Inhibition of PSD activity by the 2F3 (●) or 1C11 (◯) peptide. PSD activity was measured using the DSB-3 method. (C-E) Cell proliferation inhibition following incubation of A549 cells with the indicated mitochondria- or nuclear-targeted peptides for 24 h in a serum-free medium, and cell proliferation was assayed using the SRB method. Results are the means±SEM (n=3). (F) A549 cells were incubated for 90 min with 5 μM of the mitochondria- or nuclear targeted FITC-labelled peptides, immunostained with anti-SMAC antibodies and with DAPI and visualized by confocal microscope for subcellular localization. Arrows indicates nuclear (n=3). Scale bars represent 20
(A) A549 cells were incubated with the indicated concentration of 1C11-HTRA2-derived peptide targeted to the mitochondrion with the targeting sequence added to the N-terminus (N-Ter) or the C-terminus (C-Ter). (B) Mitochondrion targeted 1C11-HTRA2-derived peptide was modified by replacing the three amino acids in the C or the N-terminus of the peptide, or all amino acids in the peptide with the D-confirmation of the amino acid (underlined amino acids)). Following 24 h incubation in a serum-free medium, cell proliferation was assayed using the SRB method. (C) The concentration required for 50% inhibition of cell proliferation (IC50) is presented. Results are the means±SEM (n=3).
A549 (human lung adenocarcinoma epithelial cell), HEK-293T (human embryonic kidney), H1563/CRL-5875 (non-small cell lung cancer adenocarcinoma), H-358 (bronchioalveolar carcinoma), HaCaT (spontaneously transformed aneuploid immortal human skin keratinocyte), and WI-38 (fibroblast-like fetal lung cell) cell lines were purchased from the American Type Culture Collection (ATCC) (Manassas, VA), and were maintained as per ATCC instructions. Cells were maintained in ATCC recommended medium at 37° C. in an incubator with 5% CO2. Cell lines were routinely tested for Mycoplasma contamination. For SMAC overexpression, cells were seeded (200,000 cells/well) on 6-well culture plates and allowed to adhere overnight. These adhered cells were transfected with PVMV3.1-SMAC or empty vector using the JetPRIME transfection reagent (Illkirch, France), according to the manufacturers' instructions. Medium was changed 6 h post transfection, and cells were harvested 48 h post transfection.
Cells were seeded in 96-well cell culture plates (8,000/well) and allowed to grow for 48 h. After washing with PBS, cells were fixed with 10% trichloroacetic acid, and stained with SRB for 20 min. Excess SRB were removed, and cells were washed with 1% acetic acid. SRB extraction was done using 100 mM Tris-base, and absorbance at 510 nm was determined using an Infinite M1000 plate reader (Tecan, Mannedorf, Switzerland).

| Structure (SMILES) | IC50 |
| --- | --- |
| Cc1cc(O)cc(C)c1C[C@H](NC(=O)[C@@H](CCCNC(=N)N)NC(=O)[C@H](CCC(N)=O)NC(=O)[C@H](CCC(N)=O)NC(=O)[C@H](CO)NC(=O)[C@H](CC(C)C)NC(=O)[C@H](Cc1ccccc1)NC(=O)[C@H](CC(=O)O)NC(=O)[C@H](Cc1ccccc1)NC(=O)[C@H](C)NC(=O)[C@H](CC(C)C)NC(=O)[C@H](CC(=O)O)NC(=O)[C@H](CO)NC(=O)[C@H](CO)NC(=O)[C@H](Cc1c[nH]cn1)NC(=O)[C@H](CC(=O)O)NC(=O)[C@@H](NC(=O)CNC(=O)[C@H](CCC(N)=O)NC(=O)[C@H](Cc1ccccc1)NC(=O)[C@H](C)NC(=O)[C@H](CCCNC(=N)N)NC(=O)[C@H](CO)NC(=O)[C@H](CO)NC(=O)[C@H](CCC(N)=O)NC(=O)[C@H](CC(N)=O)NC(=O)[C@@H]1CCCN1)[C@@H](C)O)C(=O)N[C@@H](CCCN)C(=O)N[C@@H](Cc1ccccc1)C(N)=O [2I8-(D-Arg)-Dmt-Orn-Phe-NH2] (H-PNQSSRAFQGTDHSSDLAFDFLSQQ[dR][Dmt][Orn]F-NH2; N-terminus assumed) | 30.2 ± 3.6 µM |
| CC[C@H](C)[C@H](NC(=O)[C@@H](NC(=O)[C@H](CC(N)=O)NC(=O)[C@H](C)NC(=O)[C@H](CCCCN)NC(=O)[C@H](CC(C)C)NC(=O)[C@H](CC(C)C)NC(=O)[C@H](CC(N)=O)NC(=O)[C@H](CC(=O)O)NC(=O)[C@H](CC(C)C)NC(=O)[C@@H](NC(=O)[C@@H]1CCCN1C(=O)[C@H](CC(C)C)NC(=O)[C@@H](NC(=O)[C@H](CS)NC(=O)[C@@H](NC(=O)[C@H](CC(C)C)NC(=O)[C@H](CCC(N)=O)NC(=O)[C@H](CCC(N)=O)NC(=O)[C@H](Cc1ccccc1)NC(=O)[C@H](Cc1ccccc1)NC(=O)[C@H](CCCN)NC(=O)[C@H](Cc1c(C)cc(O)cc1C)NC(=O)[C@H](N)CCCNC(=N)N)[C@@H](C)O)C(C)C)[C@@H](C)CC)C(C)C)C(=O)N[C@@H](CC(N)=O)C(=O)N[C@@H](CCCCN)C(=O)N[C@@H](CCC(N)=O)C(=O)N[C@@H](CCC(=O)O)C(=O)N[C@@H](Cc1c[nH]cn1)C(=O)O [D-Arg-Dmt-Orn-Phe-1E14] (H-[dR][Dmt][Orn]FFQQLTCVLPILDNLLKANVINKQEH-OH; N-terminus and C-terminus assumed) | > 100 µM |
| CC[C@H](C)[C@H](NC(=O)[C@@H]1CCCN1C(=O)[C@H](CO)NC(=O)[C@H](CO)NC(=O)[C@@H](NC(=O)[C@H](CO)NC(=O)[C@H](CC(C)C)NC(=O)[C@H](C)NC(=O)[C@H](Cc1ccccc1)NC(=O)[C@H](CCCN)NC(=O)[C@H](Cc1c(C)cc(O)cc1C)NC(=O)[C@H](N)CCCNC(=N)N)[C@@H](C)O)C(=O)N1CCC[C@H]1C(=O)N[C@@H](CO)C(=O)N[C@H](C(=O)N1CCC[C@H]1C(=O)N[C@@H](CCC(N)=O)C(=O)N[C@@H](CO)C(=O)N[C@@H](CCC(N)=O)C(=O)N[C@@H](C)C(=O)N[C@@H](CCC(N)=O)C(=O)N1CCC[C@H]1C(=O)N[C@@H](CCC(N)=O)C(=O)N[C@H](C(=O)NCC(=O)N[C@@H](CO)C(=O)NCC(=O)N[C@@H](C)C(=O)N[C@@H](CO)C(=O)O)[C@@H](C)O)C(C)C [H-(D-Arg)-Dmt-Orn-Phe-2F3] (H-[dR][Dmt][Orn]FALSTSSPIPSVPQSQAQPQTGSGAS-OH; C-terminus assumed) | > 100 µM |
| Cc1cc(O)cc(C)c1C[C@H](NC(=O)[C@H](N)CCCNC(=N)N)C(=O)N[C@@H](CCCN)C(=O)N[C@@H](Cc1ccccc1)C(=O)N1CCC[C@H]1C(=O)N[C@@H](CC(N)=O)C(=O)N[C@@H](CCC(N)=O)C(=O)N[C@@H](CO)C(=O)N[C@@H](CO)C(=O)N[C@@H](CCCNC(=N)N)C(=O)N[C@@H](C)C(=O)N[C@@H](Cc1ccccc1)C(=O)N[C@@H](CCC(N)=O)C(=O)NCC(=O)N[C@H](C(=O)N[C@@H](CC(=O)O)C(=O)N[C@@H](Cc1c[nH]cn1)C(=O)N[C@@H](CO)C(=O)N[C@@H](CO)C(=O)N[C@@H](CC(=O)O)C(=O)N[C@@H](CC(C)C)C(=O)N[C@@H](C)C(=O)N[C@@H](Cc1ccccc1)C(=O)N[C@@H](CC(=O)O)C(=O)N[C@@H](Cc1ccccc1)C(=O)N[C@@H](CC(C)C)C(=O)N[C@@H](CO)C(=O)N[C@@H](CCC(N)=O)C(=O)N[C@@H](CCC(N)=O)C(=O)O)[C@@H](C)O [D-Arg-Dmt-Orn-Phe-2I8] (H-[dR][Dmt][Orn]FPNQSSRAFQGTDHSSDLAFDFLSQQ-OH; N-terminus and C-terminus assumed) | 66.8 ± 4.7 µM |
| CC[C@H](C)[C@H](NC(=O)[C@@H](NC(=O)[C@H](CC(N)=O)NC(=O)[C@H](C)NC(=O)[C@H](CCCCN)NC(=O)[C@H](CC(C)C)NC(=O)[C@H](CC(C)C)NC(=O)[C@H](CC(N)=O)NC(=O)[C@H](CC(=O)O)NC(=O)[C@H](CC(C)C)NC(=O)[C@@H](NC(=O)[C@@H]1CCCN1C(=O)[C@H](CC(C)C)NC(=O)[C@@H](NC(=O)[C@H](CS)NC(=O)[C@@H](NC(=O)[C@H](CC(C)C)NC(=O)[C@H](CCC(N)=O)NC(=O)[C@H](CCC(N)=O)NC(=O)[C@@H](N)Cc1ccccc1)[C@@H](C)O)C(C)C)[C@@H](C)CC)C(C)C)C(=O)N[C@@H](CC(N)=O)C(=O)N[C@@H](CCCCN)C(=O)N[C@@H](CCC(N)=O)C(=O)N[C@@H](CCC(=O)O)C(=O)N[C@@H](Cc1c[nH]cn1)C(=O)N[C@H](CCCNC(=N)N)C(=O)N[C@@H](Cc1c(C)cc(O)cc1C)C(=O)N[C@@H](CCCN)C(=O)N[C@@H](Cc1ccccc1)C(N)=O [1E14-D-Arg-Dmt-Orn-Phe] (H-FQQLTCVLPILDNLLKANVINKQEH[dR][Dmt][Orn]F-NH2; N-terminus and C-terminus assumed) | > 100 µM |
| CC(C)C[C@H](NC(=O)[C@H](CC(=O)O)NC(=O)[C@H](CO)NC(=O)[C@H](CO)NC(=O)[C@H](Cc1c[nH]cn1)NC(=O)[C@H](CC(=O)O)NC(=O)[C@@H](NC(=O)CNC(=O)[C@H](CCC(N)=O)NC(=O)[C@H](Cc1ccccc1)NC(=O)[C@H](C)NC(=O)[C@H](CCCNC(=N)N)NC(=O)[C@H](CO)NC(=O)[C@H](CO)NC(=O)[C@H](CCC(N)=O)NC(=O)[C@H](CC(N)=O)NC(=O)[C@@H]1CCCN1)[C@@H](C)O)C(=O)N[C@@H](C)C(=O)N[C@@H](Cc1ccccc1)C(=O)N[C@@H](CC(=O)O)C(=O)N[C@@H](Cc1ccccc1)C(=O)N[C@@H](CC(C)C)C(=O)N[C@@H](CO)C(=O)N[C@@H](CCC(N)=O)C(=O)N[C@@H](CCC(N)=O)C(=O)N[C@@H](CCCNC(=N)N)C(=O)N[C@H](CCCNC(=N)N)C(=O)N[C@@H](CCCNC(=N)N)C(=O)N[C@@H](CCCCN)C(=O)O [2I8-R-{D-Arg}-RK] (H-PNQSSRAFQGTDHSSDLAFDFLSQQR[dR]RK-OH; N-terminus and C-terminus assumed) | 19.7 ± 4.3 µM |
| CC[C@H](C)[C@H](NC(=O)[C@@H]1CCCN1C(=O)[C@H](CO)NC(=O)[C@H](CO)NC(=O)[C@@H](NC(=O)[C@H](CO)NC(=O)[C@H](CC(C)C)NC(=O)[C@H](C)N)[C@@H](C)O)C(=O)N1CCC[C@H]1C(=O)N[C@@H](CO)C(=O)N[C@H](C(=O)N1CCC[C@H]1C(=O)N[C@@H](CCC(N)=O)C(=O)N[C@@H](CO)C(=O)N[C@@H](CCC(N)=O)C(=O)N[C@@H](C)C(=O)N[C@@H](CCC(N)=O)C(=O)N1CCC[C@H]1C(=O)N[C@@H](CCC(N)=O)C(=O)N[C@H](C(=O)NCC(=O)N[C@@H](CO)C(=O)NCC(=O)N[C@@H](C)C(=O)N[C@@H](CO)C(=O)N[C@H](CCCNC(=N)N)C(=O)N[C@@H](Cc1c(C)cc(O)cc1C)C(=O)N[C@@H](CCCN)C(=O)N[C@@H](Cc1ccccc1)C(N)=O)[C@@H](C)O)C(C)C [2F3-D-Arg-Dmt-Orn-Phe] (H-ALSTSSPIPSVPQSQAQPQTGSGAS[dR][Dmt][Orn]F-NH2; N-terminus and C-terminus assumed) | 19.6 ± 0.4 µM |
| CC(C)C[C@H](NC(=O)[C@H](C)N)C(=O)N[C@@H](CC(C)C)C(=O)N[C@H](C(=O)N[C@@H](CO)C(=O)NCC(=O)N[C@H](C(=O)N[C@@H](CO)C(=O)N[C@@H](CC(=O)O)C(=O)N1CCC[C@H]1C(=O)N[C@@H](CCCNC(=N)N)C(=O)N[C@@H](C)C(=O)N[C@@H](CCCNC(=N)N)C(=O)N[C@H](C(=O)N[C@H](C(=O)N[C@@H](Cc1ccc(O)cc1)C(=O)NCC(=O)N[C@H](C(=O)N1CCC[C@H]1C(=O)N[C@@H](CO)C(=O)N[C@@H](CC(C)C)C(=O)N[C@@H](Cc1c[nH]c2ccccc12)C(=O)N[C@@H](C)C(=O)N[C@@H](CCCNC(=N)N)C(=O)N[C@@H](CC(C)C)C(=O)N[C@@H](CCCNC(=N)N)C(=O)N[C@H](CCCNC(=N)N)C(=O)N[C@@H](CCCNC(=N)N)C(=O)N[C@@H](CCCCN)C(=O)O)[C@@H](C)O)[C@@H](C)O)C(C)C)[C@@H](C)O)[C@@H](C)O [1C11-R-{D-Arg}-RK] (H-ALLTSGTSDPRARVTYGTPSLWARLR[dR]RK-OH; N-terminus and C-terminus assumed) | 30 ± 3.8 µM |
